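96-well plates; 48 h exposure; 5 concentrations. Endpoints by linear interpolation between flanking doses. Not reached: highest tested concentration assigned. GI50 = concentration required for 50% inhibition of growth.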 Active and inactive are the calls of the source. Rule as the data show it: active = GI50 up to about 1.1 µM and inactive = higher.
Key:
Assay in all cases: NCI anticancer screen, dose series, 48 h
[1] = system: OVCAR-8
[2] = system: HCT-116
[3] = system: NCI-H522
[4] = system: PC-3
[5] = system: SNB-75
[6] = system: 786-0
[7] = system: U-251
[8] = system: RPMI-8226
[9] = system: NCI/ADR-RES
[10] = system: COLO 205
[11] = system: SK-MEL-28
[12] = system: SK-OV-3
[13] = system: IGROV-1
[14] = system: HL-60
[15] = system: NCI-H460
[16] = system: CCRF-CEM
[17] = system: EKVX
[18] = system: RXF 393
[19] = system: OVCAR-4
[20] = system: M14

Measured: GI50

Cc1cccc2nc3n(c12)C(=O)c1ccccc1-3
inactive: [1] > 100 µM | [2] > 100 µM | [3] > 100 µM | [4] > 100 µM | [5] > 100 µM | [6] > 100 µM | [7] > 100 µM | [8] > 100 µM | [9] > 100 µM | [10] > 100 µM | [11] > 100 µM | [12] > 100 µM | [13] > 100 µM | [14] > 100 µM | [15] > 100 µM | [16] > 100 µM | [17] 91.4 µM | [18] > 100 µM | [19] > 100 µM

O=c1c2ccccc2nc(-c2cc3c(cc2Cl)Sc2nccn2S3(=O)=O)n1-c1ccccc1
inactive: [1] 12.3 µM | [2] 14.2 µM | [3] > 100 µM | [4] 16.5 µM | [5] 21.4 µM | [6] 30.1 µM | [7] 16.8 µM | [8] 12.9 µM | [9] 19.1 µM | [10] > 100 µM | [11] 21.4 µM | [12] > 100 µM | [13] 42.6 µM | [14] 4.13 µM | [15] 37.3 µM | [17] 21.4 µM | [18] 18.8 µM | [19] 17.9 µM | [20] > 100 µM

Sc1nc2c(c(-c3nc(S)nc4c3CCCCCCCCCC4)n1)CCCCCCCCCC2
inactive: [1] > 100 µM | [2] > 100 µM | [3] > 100 µM | [4] > 100 µM | [5] > 100 µM | [6] > 100 µM | [7] > 100 µM | [9] > 100 µM | [10] > 100 µM | [11] > 100 µM | [12] > 100 µM | [13] > 100 µM | [14] > 100 µM | [15] > 100 µM | [17] > 100 µM | [18] > 100 µM | [19] > 100 µM | [20] > 100 µM

COC(=O)[C@@H]1C[C@]2(Br)c3ccccc3N(S(=O)(=O)c3ccccc3)[C@@H]2N1C(=O)OC
inactive: [1] > 100 µM | [2] > 100 µM | [3] > 100 µM | [4] > 100 µM | [5] 66.8 µM | [6] > 100 µM | [7] > 100 µM | [8] 93.1 µM | [9] > 100 µM | [11] > 100 µM | [12] > 100 µM | [13] > 100 µM | [14] > 100 µM | [15] > 100 µM | [16] > 100 µM | [17] 74.1 µM | [18] 23 µM | [19] 73.8 µM

COc1ccc2c(c1)CCCN1CCc3ccccc3C21 (stereo unspecified)
inactive: [1] 39.9 µM | [2] 16.8 µM | [3] 52.1 µM | [4] 41.5 µM | [5] 16.4 µM | [6] 26.6 µM | [7] 28.4 µM | [9] 16.8 µM | [10] 22.4 µM | [11] 36.5 µM | [12] 52.2 µM | [13] 50 µM | [14] 17.1 µM | [15] 56.1 µM | [16] 26.1 µM | [17] 76.4 µM | [18] 25.9 µM | [19] > 100 µM | [20] 20.4 µM

O=C1CC2(CCN(CC3COc4ccccc4O3)CC2)C(=O)N1N1CCCCCC1 (stereo unspecified)
inactive: [1] 64.6 µM | [2] 52.6 µM | [3] 78.5 µM | [4] 27.5 µM | [5] 76.4 µM | [6] > 100 µM | [7] > 100 µM | [8] 59.8 µM | [9] 52.7 µM | [10] 35.9 µM | [11] > 100 µM | [12] > 100 µM | [13] > 100 µM | [14] 17.6 µM | [16] 29.4 µM | [17] > 100 µM | [18] 64.6 µM | [19] 33.6 µM | [20] 69.3 µM

c1ccc2c(C3CCN(CCN4CCOCC4)C3)c[nH]c2c1 (stereo unspecified)
inactive: [1] > 100 µM | [2] > 100 µM | [3] > 100 µM | [4] > 100 µM | [5] > 100 µM | [6] > 100 µM | [7] > 100 µM | [8] > 100 µM | [9] > 100 µM | [11] > 100 µM | [12] > 100 µM | [13] > 100 µM | [14] > 100 µM | [15] > 100 µM | [16] > 100 µM | [17] > 100 µM | [18] > 100 µM | [19] > 100 µM | [20] > 100 µM

COc1ccc2nc3n(c2c1)CCc1cc(OC)c(OC)cc1-3
inactive: [1] 41.6 µM | [2] 47.8 µM | [3] 32.2 µM | [4] 39.4 µM | [5] 40.7 µM | [6] 49.8 µM | [7] 60.8 µM | [9] 45.2 µM | [10] 26.1 µM | [11] 78 µM | [12] > 100 µM | [14] 44.6 µM | [15] 50.5 µM | [16] 49.1 µM | [17] 42.4 µM | [18] > 100 µM | [19] 34.8 µM | [20] 39.9 µM

CCOc1cc2c(=O)oc3c(OC)ccc4ccc(c1OC)c2c43
inactive: [1] 25.2 µM | [2] 6.64 µM | [3] 16.7 µM | [4] > 100 µM | [5] 64.3 µM | [6] 36.5 µM | [7] 34.5 µM | [9] 36.2 µM | [10] > 100 µM | [11] > 100 µM | [12] 25.1 µM | [13] > 100 µM | [14] > 100 µM | [15] 25.1 µM | [16] > 100 µM | [17] > 100 µM | [18] 52.7 µM | [19] 58.7 µM | [20] 45.3 µM

CCOP(=O)(O)CN1CCNCCN(CP(=O)(O)OCC)CCNCC1
inactive: [1] > 100 µM | [2] > 100 µM | [3] > 100 µM | [4] > 100 µM | [5] > 100 µM | [6] > 100 µM | [7] > 100 µM | [8] > 100 µM | [9] > 100 µM | [10] 91.4 µM | [11] > 100 µM | [12] > 100 µM | [13] > 100 µM | [14] 53 µM | [15] > 100 µM | [16] > 100 µM | [17] > 100 µM | [18] > 100 µM | [19] > 100 µM

CC(=O)C1C(=O)C(=O)N(c2ccc([N+](=O)[O-])cc2)C1=O (stereo unspecified)
inactive: [1] > 100 µM | [2] > 100 µM | [3] > 100 µM | [4] 52.7 µM | [5] > 100 µM | [6] > 100 µM | [7] > 100 µM | [9] > 100 µM | [10] > 100 µM | [11] > 100 µM | [12] > 100 µM | [13] > 100 µM | [14] > 100 µM | [15] > 100 µM | [16] > 100 µM | [17] > 100 µM | [18] > 100 µM | [19] > 100 µM | [20] > 100 µM

Reference: ChEMBL document CHEMBL1201862, “PubChem BioAssay data set” (2004)
